Positions of bridges follow the written chain, without caps; N, C: chain ends. Non-standard residues stand in square brackets, D forms with d. Residues, ends and D or L forms follow the SMILES beside them. *: point of attachment. X1 = CC[C@H](C)CCCCC(=O)*; Dab = NCC[C@H](N)C(=O)O

The source of these data is ChEMBL document CHEMBL6092167, “Phosphorylation as an Effective Tool to Improve Stability and Reduce Toxicity of Antimicrobial Peptides” (J Med Chem, 2024).

Data set [1] is described as follows: Toxicity in ip dosed BALB/c mouse assessed as hemorrhage in kidney at LD50 dose by H and E staining based assay. It counts as organism-based. The note with it: in vivo.
Data set [2] is described as follows: Toxicity in ip dosed BALB/c mouse assessed as sharp breathing at LD50 dose measured within 1 hr by Karber method. The note with it: in vivo. In kind it is organism-based.
Data set [3] in a line: Toxicity in ip dosed BALB/c mouse assessed as respiratory depression at LD50 dose measured within 1 hr by Karber method. It counts as organism-based. Conditions: in vivo.
A short description of data set [4]: Toxicity in ip dosed BALB/c mouse assessed as lusterless hair at LD50 dose measured within 1 hr by Karber method. In kind it is organism-based. The note with it: in vivo.
Data set [5] in a line: Toxicity in ip dosed BALB/c mouse assessed as lateral recumbency at LD50 dose measured within 1 hr by Karber method. It counts as organism-based. Conditions: in vivo.
Data set [6] is described as follows: Toxicity in ip dosed BALB/c mouse assessed as hemorrhage in lung at LD50 dose by H and E staining based assay. It counts as organism-based. Conditions: in vivo.
Data set [7] in a line: Cytotoxicity against HEK293T cells incubated for 1 hr by fluorescence based microplate reader assay. In kind it is toxicity, cell-based, HEK-293T. Conditions: human.
Data set [8] in a line: Toxicity in ip dosed BALB/c mouse assessed as inflammatory cell infiltration in lung at LD50 dose by H and E staining based assay. It counts as organism-based. Conditions: in vivo.
Data set [9] in a line: Toxicity in ip dosed BALB/c mouse assessed as convulsions at LD50 dose measured within 1 hr by Karber method. In kind it is organism-based. The note with it: in vivo.
Data set [10] in a line: Toxicity in ip dosed BALB/c mouse assessed as renal cell swelling at LD50 dose by H and E staining based assay. In kind it is organism-based. Conditions: in vivo.
A short description of data set [11]: Toxicity in ip dosed BALB/c mouse assessed as pulmonary congestion at LD50 dose by H and E staining based assay. The note with it: in vivo. In kind it is organism-based.
Data set [12] can be described thus: Toxicity in ip dosed BALB/c mouse assessed as inflammatory cell infiltration in kidney at LD50 dose by H and E staining based assay. In kind it is organism-based. The note with it: in vivo.
Data set [13] can be described thus: Toxicity in ip dosed BALB/c mouse measured after 14 days. It counts as organism-based. Conditions: in vivo, time 14 day.
Data set [14] can be described thus: Toxicity in ip dosed BALB/c mouse assessed as rapid death at LD50 dose measured within 1 hr by Karber method. It counts as organism-based. Conditions: in vivo.
The nature of data set [15]: Hemolytic activity in mouse erythrocyte incubated for 1 hr by microplate reader assay. In kind it is toxicity, cell-based.
Data set [16] in a line: Toxicity in ip dosed BALB/c mouse assessed as alveolar constriction at LD50 dose by H and E staining based assay. It counts as organism-based. Conditions: in vivo.

For the molecule `CC(C)CCCCC(=O)N[C@@H](CCN)C(=O)N[C@H](C(=O)N[C@@H](CCN)C(=O)N[C@H]1CCNC(=O)[C@H]([C@@H](C)O)NC(=O)[C@H](CCN)NC(=O)[C@H](CCN)NC(=O)[C@H](CC(C)C)NC(=O)[C@@H](Cc2ccccc2)NC(=O)[C@H](CCN)NC1=O)[C@@H](C)O.CC[C@H](C)CCCCC(=O)N[C@@H](CCN)C(=O)N[C@H](C(=O)N[C@@H](CCN)C(=O)N[C@H]1CCNC(=O)[C@H]([C@@H](C)O)NC(=O)[C@H](CCN)NC(=O)[C@H](CCN)NC(=O)[C@H](CC(C)C)NC(=O)[C@@H](Cc2ccccc2)NC(=O)[C@H](CCN)NC1=O)[C@@H](C)O` (X1-[Dab]T[Dab][Dab][Dab][dF]L[Dab][Dab]T; lactam 4-C), the Activity entry in data set [1], in [2], in [3], in data set [4], in data set [5] and in data set [6] was “Toxic” each time. Besides, the Activity entry in data set [8], in data set [9], in data set [10], in data set [11], in data set [12] and in data set [14] was “Toxic” throughout. Also, the Activity entry in [16] is “Toxic”. In addition, the CC50 at 1 h in data set [7] amounted to 128 µM. In [13], this molecule gave an LD50 at 336 h of 25.7 mg/kg. For the same molecule, in data set [15], the MHC was > 256 µM.

For orientation: CC50 means the concentration giving 50% cytotoxicity. A lower CC50 goes with greater toxicity to the cells. The term LD50 denotes the dose at which mortality reaches 50%.
